Test results reported in patent publication US20170216252A1, “ANTI-BACTERIAL PYRUVATE KINASE MODULATOR COMPOUNDS, COMPOSITIONS, USES AND METHODS” (SIMON FRASER UNIVERSITY, priority 2014, published 2017).
Converted amounts (≈) assume the structure as drawn. Read-outs that look alike come from different tables or passages of the source.

What was measured:
[1] = target: T1, MRSA PK (Staphylococcus aureus, UniProt Q6GG09); experiment: MRSA PK activity, continuous LDH-coupled assay; assay type: biochemical, S. aureus (MRSA strain Sanger 252)
T1 construct: His tag (pET-28a(+) vector) (N); made in house; host or cells: E. coli BL-21 (DE3)
T1 sequence (Q6GG09 whole entry): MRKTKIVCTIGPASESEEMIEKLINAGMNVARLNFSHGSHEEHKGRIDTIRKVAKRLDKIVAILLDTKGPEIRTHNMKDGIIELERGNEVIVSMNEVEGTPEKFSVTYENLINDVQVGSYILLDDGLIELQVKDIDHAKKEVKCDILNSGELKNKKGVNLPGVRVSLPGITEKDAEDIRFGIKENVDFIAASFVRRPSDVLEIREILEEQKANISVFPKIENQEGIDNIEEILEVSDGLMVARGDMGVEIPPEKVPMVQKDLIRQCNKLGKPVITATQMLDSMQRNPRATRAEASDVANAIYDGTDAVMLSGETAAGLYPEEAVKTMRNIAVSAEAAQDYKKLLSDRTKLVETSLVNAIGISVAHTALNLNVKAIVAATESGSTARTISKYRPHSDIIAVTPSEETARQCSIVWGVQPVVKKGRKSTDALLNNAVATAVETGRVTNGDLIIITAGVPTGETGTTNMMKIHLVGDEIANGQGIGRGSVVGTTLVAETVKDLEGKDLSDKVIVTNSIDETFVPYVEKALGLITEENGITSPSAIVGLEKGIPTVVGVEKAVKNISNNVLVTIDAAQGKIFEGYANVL
Procedure, shortened: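 Activity was tracked as the 340 nm absorbance fall from NADH oxidation via coupled LDH, at 30 °C for ≤5 min. Reactions began on adding 15 nM recombinant His-tagged S. aureus PK, with inhibitor DMSO kept ≤1%. Four-parameter dose–response fitting gave IC50.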

[2] = system: S. aureus ATCC 29213; experiment: In vitro susceptibility, broth microdilution MIC; assay type: cell-based, Staphylococcus aureus
Procedure, shortened: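 The MIC against S. aureus 29213 was determined by CLSI 2-fold serial broth microdilution in Mueller Hinton broth. Plates were incubated for 18–24 h at 37 °C and read at OD600 with background subtracted. The MIC was the lowest concentration giving complete growth inhibition versus compound-free wells.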

[3] = system: A. baumannii (ATCC 19606); experiment: Broth microdilution MIC; assay type: cell-based; conditions: Acinetobacter baumannii
Description: (§1) The antimicrobial activities of PK inhibitor candidates were determined using the 96-well microtiter standard 2-fold serial broth microdilution method as described by CLSI (formerly NCCLS) with the various gram-positive and gram-negative bacteria species mentioned above. Bacteria from a single colony were grown, overnight in either BHI Broth (VRE), mueller hinton broth (S. aureus 29213; MRSA USA400) or L-broth (E. coli, P. aeruginosa, S. typhimuriu, K. Pneumonia and A. baumannii). […] Culture plates were incubated for 18-24 h at 37° C., and optical density at 600 nm (OD600) was measured using a Benchmark Plus™ microplate spectrophotometer (Bio-Rad™). The absorbance control values for the series containing CAMHB and inhibitor were subtracted as background from the corresponding infected wells. The MIC was defined as the lowest concentration of test compound leading to complete inhibition of cell growth in relationship to compound-free control wells as determined by optical density. […] All assays were run in triplicate (Tables 1-6) or duplicate. Experiments were replicated at least twice to verify reproducibility using the above conditions.
(§2) The antimicrobial activity of selected compounds against the gram negative bacteria Klebsiella pneumoniae, Acinetobacter baumannii, E. coli, Pseudomonas aeruginosa and Salmonella typhimurium, as well as additional gram positive bacteria, including drug-resistant strains, was tested according to the procedures provided under “General Methodologies” above.

[4] = system: K. pneumoniae (C238); experiment: Broth microdilution MIC; assay type: cell-based; conditions: Klebsiella pneumoniae, read-out: MIC (μg/mL) A
Description: as §1, §2

[5] = system: P. aeruginosa (PA01); experiment: Broth microdilution MIC; assay type: cell-based; conditions: Pseudomonas aeruginosa
Description: as §1, §2

[6] = system: S. pyogenes (ATCC700294); experiment: Broth microdilution MIC; assay type: cell-based; conditions: Streptococcus pyogenes
Description: as §1, §2

[7] = system: S. typhimurium (SL 1344); experiment: Broth microdilution MIC; assay type: cell-based; conditions: Salmonella enterica
Description: as §1, §2

[8] = system: E. coli (DAS 1-IMP); experiment: microbe, parasite or virus in culture; assay type: cell-based, Escherichia coli; conditions: for MIC: Escherichia coli, read-out: MIC (μg/mL) C, E. coli (DAS 1-IMP)
Description: as §1, §2

[9] = system: VRE#2 (2010A); experiment: Broth microdilution MIC; assay type: cell-based, vancomycin-resistant Enterococcus; conditions: Enterococcus, read-out: MIC (μg/mL) F
Description: as §1, §2

[10] = system: MRSA MW2 (USA400); experiment: Broth microdilution MIC; assay type: cell-based; conditions: Staphylococcus aureus, read-out: MIC (μg/mL) G
Description: as §1, §2

[11] = system: S. aureus ATCC 29123; experiment: Neutropenic mouse Staphylococcus aureus thigh infection model; assay type: in vivo; conditions: vancomycin control, 10 mg/kg IP at 2 and 8 h, 24 h endpoint
Description: The antimicrobial activity of compound 178 against S. aureus ATCC 29123 was tested in vivo using the neutropenic mouse Staphylococcus aureus thigh infection model. […] Animals were individually monitored for adverse reactions for 30 min post-infection. […] Vancomycin was administered as a solution in PBS. The test compounds were administered as outlined in Table 12 at 2 and 8 hours post-infection and animals were individually monitored for adverse reactions for 30 min after each injection. All animals were then monitored hourly from 20 hours post infection to the endpoint (t=24 hr post infection). At the indicated timepoint, animals were sacrificed and the injected thigh collected. Quantitative enumeration of bacterial load was determined by plating serial dilutions from homogenized thigh muscles. Homogenized muscle was in a total of 2 mL volume, from which a 1 in 10 dilution was prepared (100 μL into 900 μL saline). From this a series of dilutions were prepared and plated on Mueller Hinton agar plates. […] At the end of this time colony counts were determined and the final CFU per mL calculated.

[12] = Staphylococcus aureus, ATCC29213, S. aureus (ATCC29213), Table 9, read-out: MIC (μg/mL) H
[13] = Staphylococcus aureus, ATCC29213, Table 8, tested at least in duplicate, differing values all given, read-out: MIC
[14] = Table 8, tested at least in duplicate, differing values all given
[15] = ATCC19606, A. baumannii (ATCC 19606), read-out: MIC (μg/mL) B

Structure (SMILES) | IC50 [1] [nM] | MIC [2, 12] [µg/mL] | MIC [2, 13] [µg/mL] | MIC [2, 14] [µg/mL] | MIC [3, 15] [µg/mL] | MIC ([4]; K. pneumoniae (C238)) [µg/mL] | MIC [5] [µg/mL] | MIC [6] [µg/mL] | MIC [7] [µg/mL] | MIC (μg/mL) C ([8]; E. coli (DAS 1-IMP)) [µg/mL] | MIC [8] [µg/mL] | MIC ([9]; VRE#2 (2010A)) [µg/mL] | MIC ([10]; MRSA MW2 (USA400)) [µg/mL] | MIC ([2]; Staphylococcus aureus, ATCC29213) [µg/mL] | MIC ([2]; Staphylococcus aureus, ATCC29213, read-out: MIC (μg/mL) H) [µg/mL] | MIC ([3]; ATCC19606, read-out: MIC (μg/mL) B) [µg/mL] | MIC [4] [µg/mL] | MIC [10] [µg/mL] | MIC ([9]; VRE) [µg/mL] | median CFU/thigh [11]
O=C(c1c(CCc2ccc(Cl)cc2)[nH]c2cc(Br)ccc12)C(F)(F)F [Compound 167, 1-(6-Bromo-2-(4-chlorophenethyl)-1H-indol-3-yl)-2,2,2-trifluoroethanone] | 100 to 1000 | 1.5 (≈ 3.48 µM) | 2 (≈ 4.64 µM) | 1 (≈ 2.32 µM) | > 64 | 1 (≈ 2.32 µM) | > 64 | 2 (≈ 4.64 µM) | > 64 | 8 (≈ 18.6 µM) | 4 (≈ 9.29 µM) | 1 (≈ 2.32 µM) | – | – | – | – | – | – | – | –
O=C(O)c1c(/C=C/c2ccc(Cl)cc2)[nH]c2cc(Br)ccc12 [Compound 123, (E)-6-Bromo-2-(4-chlorostyryl)-1H-indole-3-carboxylic acid] | 100 to 1000 | 16 (≈ 42.5 µM) | – | – | 64 (≈ 170 µM) | 32 (≈ 85 µM) | > 64 | – | > 64 | – | 64 (≈ 170 µM) | 32 (≈ 85 µM) | 32 (≈ 85 µM) | – | – | – | – | – | – | –
O=C(c1c(/C=C/c2ccc(Cl)cc2)[nH]c2cc(Br)ccc12)C(F)(F)F [Compound 168, (E)-1-(6-Bromo-2-(4-chlorostyryl)-1H-indol-3-yl)-2,2,2-trifluoroethanone] | 100 to 1000 | 2 (≈ 4.67 µM) | 1 (≈ 2.33 µM) | 2 (≈ 4.67 µM) | – | – | – | – | – | – | – | 1 (≈ 2.33 µM) | 0.5 (≈ 1.17 µM) | – | – | – | – | – | – | –
COC(=O)c1c(/C=C/c2ccc(Cl)cc2)[nH]c2cc(Br)ccc12 [Compound 124, (E)-methyl 6-bromo-2-(4-chlorostyryl)-1H-indole-3-carboxylate] | < 50 | 2 (≈ 5.12 µM) | 4 (≈ 10.2 µM) | 2 (≈ 5.12 µM) | > 64 | 2 (≈ 5.12 µM) | > 64 | – | > 64 | – | > 64 | 8 (≈ 20.5 µM) | 2 (≈ 5.12 µM) | – | – | – | – | – | – | –
CN[C@H](CC(C)C)C(=O)N[C@H]1C(=O)N[C@@H](CC(N)=O)C(=O)N[C@H]2C(=O)N[C@H]3C(=O)N[C@H](C(=O)N[C@H](C(=O)O)c4cc(O)cc(O)c4-c4cc3ccc4O)[C@H](O)c3ccc(c(Cl)c3)Oc3cc2cc(c3O[C@@H]2O[C@H](CO)[C@@H](O)[C@H](O)[C@H]2O[C@H]2C[C@](C)(N)[C@H](O)[C@H](C)O2)Oc2ccc(cc2Cl)[C@H]1O [Vancomycin, reference compound] | – | – | – | – | – | – | – | – | – | – | – | – | – | 1 (≈ 0.69 µM) | 1 (≈ 0.69 µM) | 64 (≈ 44.2 µM) | 4 (≈ 2.76 µM) | 1 (≈ 0.69 µM) | 64 (≈ 44.2 µM) | 1.91×10^3 CFU/thigh
COc1cccc(OC)c1C(=O)N[C@@H]1C(=O)N2[C@@H]1SC(C)(C)[C@@H]2C(=O)O [Methicillin, methicillin, reference compound] | – | 2 (≈ 5.26 µM) | – | – | > 64 | 4 (≈ 10.5 µM) | – | 1 (≈ 2.63 µM) | – | – | – | 64 (≈ 168 µM) | 32 (≈ 84.1 µM) | – | – | – | – | – | – | –
